# Data as given in ChEMBL document CHEMBL1201862, “PubChem BioAssay data set” (2004).
# The source made the active and inactive calls.
# Legend:
# [1] = ADAM10 inhibitors, peptide cleavage, dose response, biochemical, QFRET (AID 743254);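 also: ADAM10 enzyme with the DM2 quenched FRET peptide as substrate; EDANS fluorescence gain as the protease cuts the substrate; inhibitor potency against ADAM10 proteolytic activity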
# [2] = biological target: Disintegrin and metalloproteinase domain-containing protein 17 (Homo sapiens, UniProt P78536); experiment: ADAM17 protease inhibitors, dose response, counter-screen for ADAM10 exosite inhibitor project, biochemical, quenched FRET substrate (AID 743253)
# Sequence of Disintegrin and metalloproteinase domain-containing protein 17 (P78536 whole entry, the tested form may be a part): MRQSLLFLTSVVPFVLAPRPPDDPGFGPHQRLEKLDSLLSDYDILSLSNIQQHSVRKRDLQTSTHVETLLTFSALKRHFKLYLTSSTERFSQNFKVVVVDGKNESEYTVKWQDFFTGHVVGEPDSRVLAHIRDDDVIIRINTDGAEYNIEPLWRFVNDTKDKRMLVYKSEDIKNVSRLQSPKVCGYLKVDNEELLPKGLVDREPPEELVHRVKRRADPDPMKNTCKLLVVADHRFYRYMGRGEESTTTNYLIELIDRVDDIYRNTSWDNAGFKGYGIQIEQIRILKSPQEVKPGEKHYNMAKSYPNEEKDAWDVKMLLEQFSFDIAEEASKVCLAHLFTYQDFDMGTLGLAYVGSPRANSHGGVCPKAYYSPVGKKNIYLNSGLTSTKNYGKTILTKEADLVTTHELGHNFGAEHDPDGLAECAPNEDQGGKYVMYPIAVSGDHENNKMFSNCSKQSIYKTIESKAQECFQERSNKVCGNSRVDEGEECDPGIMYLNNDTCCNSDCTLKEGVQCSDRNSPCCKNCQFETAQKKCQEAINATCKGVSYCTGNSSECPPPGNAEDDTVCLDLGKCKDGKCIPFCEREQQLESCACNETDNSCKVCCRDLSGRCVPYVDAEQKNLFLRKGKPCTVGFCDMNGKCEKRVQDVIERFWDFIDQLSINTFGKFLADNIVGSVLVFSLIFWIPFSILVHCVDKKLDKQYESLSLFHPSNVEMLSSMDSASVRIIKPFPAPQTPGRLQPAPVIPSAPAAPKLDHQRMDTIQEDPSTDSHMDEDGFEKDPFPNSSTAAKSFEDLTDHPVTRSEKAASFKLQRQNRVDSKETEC
# [3] = biological target: Oxysterols receptor LXR-beta (Homo sapiens, UniProt P55055); assay type: functional, cell-based;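 also: agonist activity at LXR measured by a cell-based luminescence readout across a dose range, run as a counterscreen for daf-12 agonists; HEK293 cells with Gal4-LXR fusion and GAL4-driven luciferase reporter; potency for activation of Gal4-LXR reporter so compounds are agonists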
# Sequence of Oxysterols receptor LXR-beta (P55055 whole entry, the tested form may be a part): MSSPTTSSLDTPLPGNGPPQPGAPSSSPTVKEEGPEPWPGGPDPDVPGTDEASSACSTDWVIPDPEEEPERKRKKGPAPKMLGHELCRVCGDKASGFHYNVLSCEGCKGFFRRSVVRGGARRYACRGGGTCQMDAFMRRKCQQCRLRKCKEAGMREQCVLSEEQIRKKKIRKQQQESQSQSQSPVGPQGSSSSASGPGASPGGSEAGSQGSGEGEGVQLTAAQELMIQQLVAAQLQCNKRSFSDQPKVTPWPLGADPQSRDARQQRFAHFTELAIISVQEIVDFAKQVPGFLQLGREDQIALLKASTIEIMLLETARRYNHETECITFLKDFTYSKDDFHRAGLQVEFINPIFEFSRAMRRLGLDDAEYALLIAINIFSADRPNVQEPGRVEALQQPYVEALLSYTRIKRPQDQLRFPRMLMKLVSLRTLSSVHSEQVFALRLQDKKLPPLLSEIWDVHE
# Beta-lactamase [4] = biological target: T1, Beta-lactamase (Pseudomonas aeruginosa, UniProt Q79MP6); experiment: […] counterscreen for selective VIM-2 inhibitors: dose response biochemical high throughput screening assay to identify inhibitors of IMP-1 metallo-beta-lactamase.
# T1 sequence (Q79MP6 whole entry): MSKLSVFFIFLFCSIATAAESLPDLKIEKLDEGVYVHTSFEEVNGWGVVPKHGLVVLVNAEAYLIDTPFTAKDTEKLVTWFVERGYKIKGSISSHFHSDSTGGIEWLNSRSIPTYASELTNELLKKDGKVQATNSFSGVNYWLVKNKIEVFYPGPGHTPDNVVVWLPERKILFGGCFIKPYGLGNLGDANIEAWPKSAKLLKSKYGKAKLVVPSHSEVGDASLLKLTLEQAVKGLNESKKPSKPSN
# Beta-lactamase [5] = biological target: Beta-lactamase (Salmonella choleraesuis (strain SC-B67), UniProt Q5J463); experiment: Epi-absorbance-based counterscreen for selective VIM-2 inhibitors: dose response biochemical high throughput screening assay to identify inhibitors of TEM-1 serine-beta-lactamase.
# Sequence of Beta-lactamase (Salmonella choleraesuis (strain SC-B67), UniProt Q5J463) (Q5J463 whole entry): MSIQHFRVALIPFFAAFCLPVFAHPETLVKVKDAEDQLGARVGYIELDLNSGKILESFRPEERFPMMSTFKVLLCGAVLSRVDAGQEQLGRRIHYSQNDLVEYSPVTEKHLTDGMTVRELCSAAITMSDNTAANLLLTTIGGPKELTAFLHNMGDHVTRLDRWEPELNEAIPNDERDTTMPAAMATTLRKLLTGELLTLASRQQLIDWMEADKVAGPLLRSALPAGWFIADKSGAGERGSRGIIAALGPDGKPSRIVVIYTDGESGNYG
# Beta-lactamase [6] = biological target: T1, Beta-lactamase; experiment: IMP-1 metallo-beta-lactamase inhibitors, dose response, selectivity assay for VIM-2 inhibitor project, biochemical, epi-absorbance (AID 1920)
# Large T antigen = Large T antigen (Simian virus 40, UniProt P03070); assay type: functional, Betapolyomavirus macacae;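 also: Confirmatory-stage PubChem screen for compounds that inhibit SV40 T antigen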
# Sequence of Large T antigen (P03070 whole entry, the tested form may be a part): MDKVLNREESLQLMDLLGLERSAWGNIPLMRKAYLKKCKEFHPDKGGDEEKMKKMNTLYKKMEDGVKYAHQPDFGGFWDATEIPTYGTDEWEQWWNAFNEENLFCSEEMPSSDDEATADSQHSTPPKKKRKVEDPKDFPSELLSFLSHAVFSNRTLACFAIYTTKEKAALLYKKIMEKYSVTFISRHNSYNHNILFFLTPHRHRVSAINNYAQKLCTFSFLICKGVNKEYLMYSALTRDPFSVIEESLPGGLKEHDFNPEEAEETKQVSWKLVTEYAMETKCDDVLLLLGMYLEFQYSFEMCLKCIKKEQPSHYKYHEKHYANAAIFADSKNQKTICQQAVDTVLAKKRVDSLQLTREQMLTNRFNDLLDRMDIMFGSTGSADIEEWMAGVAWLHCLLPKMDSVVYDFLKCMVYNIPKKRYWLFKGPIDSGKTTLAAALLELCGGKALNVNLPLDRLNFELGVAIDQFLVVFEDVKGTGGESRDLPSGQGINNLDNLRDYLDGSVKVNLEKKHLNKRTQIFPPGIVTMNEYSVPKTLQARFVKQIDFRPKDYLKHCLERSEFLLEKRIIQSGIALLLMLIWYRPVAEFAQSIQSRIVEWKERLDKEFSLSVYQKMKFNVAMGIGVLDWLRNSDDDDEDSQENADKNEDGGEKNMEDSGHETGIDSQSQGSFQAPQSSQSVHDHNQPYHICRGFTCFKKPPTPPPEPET
# [7] = biological target: T2, Sentrin-specific protease 1 (Homo sapiens, UniProt Q9P0U3); experiment: Dose response confirmation of small molecule inhibitors of the catalytic domain of the SUMO protease, SENP1 in a FRET assay.; assay type: functional; settings: read-out: IC50_Mean
# T2 sequence (Q9P0U3 whole entry, the tested form may be a part): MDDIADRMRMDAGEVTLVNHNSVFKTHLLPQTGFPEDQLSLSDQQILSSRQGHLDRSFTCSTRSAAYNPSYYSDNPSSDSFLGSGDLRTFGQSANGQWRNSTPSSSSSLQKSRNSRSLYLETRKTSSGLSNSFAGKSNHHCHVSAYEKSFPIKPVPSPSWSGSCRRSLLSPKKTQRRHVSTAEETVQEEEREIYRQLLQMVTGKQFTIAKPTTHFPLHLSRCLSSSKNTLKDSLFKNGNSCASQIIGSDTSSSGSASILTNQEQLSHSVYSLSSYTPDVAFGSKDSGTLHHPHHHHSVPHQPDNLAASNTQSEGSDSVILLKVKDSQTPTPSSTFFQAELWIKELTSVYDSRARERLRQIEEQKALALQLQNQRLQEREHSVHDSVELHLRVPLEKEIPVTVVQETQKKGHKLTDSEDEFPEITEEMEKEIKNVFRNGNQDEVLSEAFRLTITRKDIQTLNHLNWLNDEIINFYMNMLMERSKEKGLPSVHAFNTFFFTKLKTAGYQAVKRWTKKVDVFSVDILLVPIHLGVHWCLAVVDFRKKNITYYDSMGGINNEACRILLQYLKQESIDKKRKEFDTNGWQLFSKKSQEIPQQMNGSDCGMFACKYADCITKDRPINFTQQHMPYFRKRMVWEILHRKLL
# [8] = biological target: T2, Sentrin-specific protease 1; experiment: potency of human SENP1 inhibitors, dose response, biochemical, kinetic FRET (AID 651697); assay type: functional; settings: read-out: IC50_Mean
# Beta-galactosidase = Beta-galactosidase (Escherichia coli, UniProt Q8VNN2); experiment: Dose response counterscreen for EBI2 assay utilizing the enzyme, b-galactosidase.; assay type: functional
# Sequence of Beta-galactosidase (Q8VNN2 whole entry): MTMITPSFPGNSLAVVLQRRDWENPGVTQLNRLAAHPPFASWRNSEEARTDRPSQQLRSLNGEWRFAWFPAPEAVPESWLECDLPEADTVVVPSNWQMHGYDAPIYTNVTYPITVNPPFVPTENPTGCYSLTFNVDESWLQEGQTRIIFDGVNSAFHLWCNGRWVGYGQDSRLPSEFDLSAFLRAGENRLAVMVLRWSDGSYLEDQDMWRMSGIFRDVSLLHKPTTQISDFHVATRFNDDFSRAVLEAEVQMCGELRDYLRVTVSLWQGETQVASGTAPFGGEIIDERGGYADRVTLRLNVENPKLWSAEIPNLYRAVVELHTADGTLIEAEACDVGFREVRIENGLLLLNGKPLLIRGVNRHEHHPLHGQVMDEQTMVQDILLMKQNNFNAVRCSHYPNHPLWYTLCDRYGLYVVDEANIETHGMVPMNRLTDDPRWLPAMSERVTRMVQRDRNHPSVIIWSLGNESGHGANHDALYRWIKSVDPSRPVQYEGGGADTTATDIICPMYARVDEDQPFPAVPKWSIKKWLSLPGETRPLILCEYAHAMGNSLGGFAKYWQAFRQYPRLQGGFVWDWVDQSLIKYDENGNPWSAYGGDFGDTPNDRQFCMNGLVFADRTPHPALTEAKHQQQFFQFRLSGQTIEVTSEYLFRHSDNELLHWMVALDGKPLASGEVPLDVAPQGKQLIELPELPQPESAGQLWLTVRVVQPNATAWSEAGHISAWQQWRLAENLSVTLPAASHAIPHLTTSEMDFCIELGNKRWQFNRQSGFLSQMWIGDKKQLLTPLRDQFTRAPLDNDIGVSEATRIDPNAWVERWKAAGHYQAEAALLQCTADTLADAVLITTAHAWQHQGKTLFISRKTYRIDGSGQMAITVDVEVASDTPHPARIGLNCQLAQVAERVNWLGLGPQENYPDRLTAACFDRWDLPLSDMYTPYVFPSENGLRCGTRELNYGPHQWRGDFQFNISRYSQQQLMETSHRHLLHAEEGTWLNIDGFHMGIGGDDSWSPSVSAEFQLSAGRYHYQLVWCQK
# [9] = HepG2 cell cytotoxicity, dose response, cytotoxicity control, ATP luminescence, cherry-pick, activator set 2 (AID 1053143); assay type: functional, cell-based
# [10] = HEK293T cell cytotoxicity, dose response, cytotoxicity control, CellTiter-Glo luminescence, cherry-picked samples, set 4 (AID 743441); assay type: functional, cell-based; settings: HEK293
# Protein Wnt-3a = Protein Wnt-3a (Mus musculus, UniProt P27467); experiment: Wnt3a-driven reporter signaling inhibition, dose response, selectivity assay for Gli-SUFU antagonist project, Wnt-LIGHT cells, luminescence (AID 651570); assay type: functional; settings: read-out: IC50_Mean;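 also: Wnt-LIGHT reporter cells stimulated with conditioned medium from Wnt3a-producing cells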
# Sequence of Protein Wnt-3a (P27467 whole entry): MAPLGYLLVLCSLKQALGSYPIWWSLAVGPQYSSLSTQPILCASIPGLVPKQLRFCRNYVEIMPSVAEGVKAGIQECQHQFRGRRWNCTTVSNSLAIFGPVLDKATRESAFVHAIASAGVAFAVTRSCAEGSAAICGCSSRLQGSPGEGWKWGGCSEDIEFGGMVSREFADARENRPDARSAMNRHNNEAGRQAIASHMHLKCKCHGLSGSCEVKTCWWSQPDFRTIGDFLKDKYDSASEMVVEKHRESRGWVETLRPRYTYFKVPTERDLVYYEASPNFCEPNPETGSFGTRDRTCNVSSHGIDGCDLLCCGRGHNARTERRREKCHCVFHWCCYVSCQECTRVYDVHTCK
# [11] = cytotoxicity in MIN6 insulinoma cells, dose response, cytotoxicity control, cell-based, mouse insulinoma (AID 2122); assay type: functional;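 also: confirmatory high-throughput counterscreen run to flag cytotoxic compounds; mouse MIN-6 beta cells carrying an insulin promoter eGFP reporter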
# [12] = Luminescence Cell-Based Dose Response HTS to Identify Activators of Luciferase Translation or Activity in H4 […] Cells. [Related pubchem assays: 1829 (Project Summary), 1814 (Primary HTS)]; assay type: functional
# H4 = experiment: Luminescence Cell-Based Dose Response HTS to Identify Activators of 5'UTR Stem-Loop Driven Prion Protein mRNA Translation in H4 Neuroglioblastoma Cells. [Related pubchem assays: 1829 (Project Summary), 1814 (Primary HTS)]; assay type: functional; settings: Homo sapiens
# [13] = insulin promoter down-regulators in MIN6 cells, imaging, high-content screening, mouse beta cells (AID 1628); assay type: functional
# [14] = biological target: T3, Small ubiquitin-related modifier 1 (Homo sapiens, UniProt P63165); experiment: inhibitors of SUMO1 peptide binding, dose response, biochemical, fluorescence polarization, uHTS hits (AID 624382); assay type: functional; settings: read-out: IC50_Mean
# T3 sequence (P63165 whole entry): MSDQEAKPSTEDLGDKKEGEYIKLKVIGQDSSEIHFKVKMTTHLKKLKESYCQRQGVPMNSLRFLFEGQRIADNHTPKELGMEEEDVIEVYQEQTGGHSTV
# Aminopeptidase N = biological target: T4, Aminopeptidase N (Plasmodium falciparum FcB1/Columbia, UniProt O96935); experiment: P. falciparum M1AAP inhibitors, biochemical, fluorogenic H-Leu-NHMec substrate, 1536-well (AID 1445); set-up: species or system Plasmodium falciparum 3D7, 3D7
# T4 sequence (O96935 whole entry): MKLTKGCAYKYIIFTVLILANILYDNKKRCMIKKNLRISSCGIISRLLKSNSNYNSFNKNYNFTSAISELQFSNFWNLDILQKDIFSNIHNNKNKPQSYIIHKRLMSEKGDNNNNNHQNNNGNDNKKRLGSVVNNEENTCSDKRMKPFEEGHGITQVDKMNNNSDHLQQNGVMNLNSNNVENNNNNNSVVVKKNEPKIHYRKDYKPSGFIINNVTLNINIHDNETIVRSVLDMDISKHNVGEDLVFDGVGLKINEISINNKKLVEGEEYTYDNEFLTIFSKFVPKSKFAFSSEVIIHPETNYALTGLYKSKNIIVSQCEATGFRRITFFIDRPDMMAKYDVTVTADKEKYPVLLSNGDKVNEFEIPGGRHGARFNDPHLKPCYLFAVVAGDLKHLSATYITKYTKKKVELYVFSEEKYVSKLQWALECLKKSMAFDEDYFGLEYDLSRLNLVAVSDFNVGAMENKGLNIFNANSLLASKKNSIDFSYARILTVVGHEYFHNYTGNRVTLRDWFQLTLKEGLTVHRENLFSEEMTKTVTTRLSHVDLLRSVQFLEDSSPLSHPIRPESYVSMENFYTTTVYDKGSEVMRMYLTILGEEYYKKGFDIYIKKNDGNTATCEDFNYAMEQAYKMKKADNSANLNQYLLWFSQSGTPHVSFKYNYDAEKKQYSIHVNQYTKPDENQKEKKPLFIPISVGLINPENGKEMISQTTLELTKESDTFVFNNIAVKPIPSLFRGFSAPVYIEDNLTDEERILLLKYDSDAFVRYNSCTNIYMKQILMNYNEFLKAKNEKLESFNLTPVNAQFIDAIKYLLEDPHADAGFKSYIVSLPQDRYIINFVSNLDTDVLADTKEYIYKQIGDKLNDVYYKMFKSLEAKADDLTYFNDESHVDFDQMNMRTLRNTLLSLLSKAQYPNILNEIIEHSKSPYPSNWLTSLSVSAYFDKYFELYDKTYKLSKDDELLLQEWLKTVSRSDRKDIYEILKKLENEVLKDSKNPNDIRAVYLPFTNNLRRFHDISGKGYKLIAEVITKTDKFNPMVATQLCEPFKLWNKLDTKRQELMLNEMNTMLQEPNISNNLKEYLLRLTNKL
# [15] = biological target: T5, Small ubiquitin-related modifier 2 (Homo sapiens, UniProt P61956); experiment: SUMO2–SIM peptide binding inhibitors, dose response, selectivity assay for SUMO1 interaction inhibitor project, biochemical, fluorescence polarization, uHTS hits (AID 624385); assay type: functional; settings: read-out: IC50_Mean
# T5 sequence (P61956 whole entry): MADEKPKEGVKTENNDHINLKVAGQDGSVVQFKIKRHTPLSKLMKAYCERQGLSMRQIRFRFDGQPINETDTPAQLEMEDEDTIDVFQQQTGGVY
# [16] = biological target: T3, Small ubiquitin-related modifier 1; experiment: inhibitors of SUMO1 partner interactions, dose response, biochemical, FRET (AID 624383); assay type: functional; settings: read-out: IC50_Mean
# [17] = biological target: T5, Small ubiquitin-related modifier 2; experiment: inhibitors of SUMO2 protein-protein interaction, dose response, selectivity assay for SUMO1 interaction inhibitor project, biochemical, FRET, human SUMO2, uHTS hits (AID 624384); assay type: functional; settings: read-out: IC50_Mean
structure (smiles),measurement,setting,value
O=S(=O)(NCC(Nc1ccc(Cl)cc1)c1ccccc1)c1ccccc1 (stereo not drawn),IC50,[1],11.4 µM (inactive)
same,IC50,[2],> 69.5 µM (inactive)
Cc1ccc(SCCN2CCC(C)CCC2=O)cc1 (stereo not drawn),EC50,[3],> 67.5 µM (inactive)
Cc1ccc(-c2nnc(S)n2-c2ccccc2)cc1,IC50,Beta-lactamase [4],> 59.6 µM (inactive)
same,IC50,Beta-lactamase [5],> 59.6 µM (inactive)
same,IC50,Beta-lactamase [6],> 59.6 µM (inactive)
Cc1cccn2c(=O)c(/C=C(\C#N)C(N)=O)c(Oc3ccccc3)nc12,AC50,cells,8.22 µM (active)
Cc1ccc(-c2nc3ncccn3c2NC2CCCCC2)o1,IC50,Large T antigen,25.9 µM (active)
same,IC50,[7],8.98 µM (active)
same,IC50,[8],19.7 µM (active)
Cc1ccc(CNC(=O)C2CCN(S(=O)(=O)c3ccc(Br)s3)CC2)cc1,IC50,Beta-galactosidase,> 80 µM (inactive)
CC(=O)Nc1cc2nn(-c3ccccc3)nc2cc1Cl,AC50,[9],4.99 µM (active)
COc1ccc(Cn2c(-c3ccc(Cl)cc3)c[n+]3ccccc23)cc1,AC50,[10],39.3 µM (active)
same,IC50,Protein Wnt-3a,36.9 µM (inactive)
same,IC50,[11],1.02 µM (active)
same,EC50,[12],> 120 µM (not active)
same,EC50,H4,> 120 µM (not active)
same,IC50,[13],1.35 µM (active)
Nc1cccc2[nH]c(C(F)(F)F)nc12,IC50,[14],26.8 µM (inactive)
same,IC50,Aminopeptidase N,80.8 µM (active)
same,IC50,[15],29.8 µM (inactive)
same,IC50,[16],37 µM (inactive)
same,IC50,[17],10.4 µM (active)
